According to patent publication US10829520B2, “Beta-hairpin peptidomimetics” (POLYPHOR AG, priority 2015, dated 2020):
Where a SMILES comes first, the peptide text is derived from it. Bridges are numbered along the chain shown (N, C = ends). Roman numbers before positions name the chains, in order. [ ]: non-standard residue; d: D form. The star is where a group is joined. X2 = CN(C)C(=N[C@@H](Cc1c[nH]c2ccccc12)C(=O)*)N(C)C; dHyp = O=C(O)[C@H]1C[C@H](O)CN1; Pen = CC(C)(S)[C@H](N)C(=O)O; Tle = CC(C)(C)[C@H](N)C(=O)O; dDab = NCC[C@@H](N)C(=O)O; hSer = N[C@@H](CCO)C(=O)O; Nle = CCCC[C@H](N)C(=O)O; Orn = NCCC[C@H](N)C(=O)O; Dab = NCC[C@H](N)C(=O)O; Dap = NC[C@H](N)C(=O)O; Sar = CNCC(=O)O

How the values were obtained:
Assay type in all cases: cell-based
[1] = system: Pseudomonas aeruginosa ATCC 27853; conditions: ATCC 27853
How it was run: (§1)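 Antibacterial activity is measured as MIC (μg/mL) by standard CLSI microdilution. Inocula of about 10^6 CFU/mL in MH-II broth meet two-fold peptide dilutions in medium with 0.002% Polysorbate 80, and growth is scored visually after 18-20 hours at 35° C.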

[2] = system: Klebsiella pneumoniae SSI #3010; conditions: SSI #3010
How it was run: as §1

[3] = system: Acinetobacter baumannii 872842; conditions: 872842
Escherichia coli 926415 = conditions: 926415
[4] = system: Klebsiella pneumoniae 968733; conditions: 968733
[5] = system: Escherichia coli ATCC 25922; conditions: ATCC 25922
How it was run: as §1

[6] = system: Acinetobacter baumannii DSM 30008; conditions: DSM 30008
How it was run: as §1

[7] = system: human red blood cells (hRBC); assay: Hemolysis of human red blood cells; conditions: red cells of human, 1 h
How it was run: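 Fresh human red blood cells are washed in PBS, then shaken with peptide (100 μg/mL) at 37° C. for 1 h, final erythrocyte density about 0.9×10^9 cells/mL. After centrifugation, diluted supernatants are read at 540 nm against buffer (0%) and Triton X-100 (100%) lysis controls.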

| SMILES | Pseudomonas aeruginosa ATCC 27853 MIC [1] [µg/mL] | Klebsiella pneumoniae SSI #3010 MIC [2] [µg/mL] | Acinetobacter baumannii 872842 MIC [3] [µg/mL] | Escherichia coli 926415 MIC (Escherichia coli 926415) [µg/mL] | Klebsiella pneumoniae 968733 MIC [4] [µg/mL] | Escherichia coli ATCC 25922 MIC [5] [µg/mL] | Acinetobacter baumannii DSM 30008 MIC [6] [µg/mL] | Hemolysis at 100 μg/mL [7]; 100 [%] | Hemolysis at 100 μg/mL ([7]; 100 μg/mL) [%] |
| --- | --- | --- | --- | --- | --- | --- | --- | --- | --- |
| CCCC[C@@H]1NC(=O)[C@@H]2CCCN2C(=O)[C@H]2CCCN2C(=O)[C@H](CO)NC(=O)[C@H](C)NC(=O)[C@H](C(C)(C)C)NC(=O)[C@H](CCN)NC(=O)[C@H](Cc2c[nH]c3ccccc23)NC(=O)[C@H](CCC(=O)N[C@@H](CCN)C(=O)N[C@H]2CCNC(=O)[C@H]([C@@H](C)O)NC(=O)[C@H](CCN)NC(=O)[C@H](CCN)NC(=O)[C@H](CC(C)C)NC(=O)[C@@H](CC(C)C)NC(=O)[C@H](CCN)NC2=O)NC(=O)[C@@H](CCN)NC(=O)[C@H](CCCN)NC(=O)[C@H](CCN)NC(=O)[C@H](Cc2ccc(O)cc2)NC(=O)[C@H](CO)NC1=O [Ex. 70] (I: cyclo([Nle]SY[Dab][Orn][dDab]EW[Dab][Tle]AS[dP]P) / II: [Dab][Dab][Dab][dL]L[Dab][Dab]T; amide I:7-II:N; lactam II:2-II:C) | 0.5 | 2 | 2 | 1 | 8 | 1 | 1 | <1 |  |
| CC(C)C[C@@H]1NC(=O)[C@@H](CC(C)C)NC(=O)[C@H](CCN)NC(=O)[C@@H](NC(=O)[C@H](CCN)NC(=O)[C@@H](NC(=O)[C@H](CCN)NC(=O)CNC(=O)[C@@H]2CSSC[C@H](NC(=O)[C@H](Cc3c[nH]c4ccccc34)N=C(N(C)C)N(C)C)C(=O)N[C@@H](C(C)C)C(=O)N[C@@H](C)C(=O)N[C@@H](CO)C(=O)N3CCC[C@@H]3C(=O)N3CCC[C@H]3C(=O)N[C@@H](CC(C)C)C(=O)N[C@@H](CO)C(=O)N[C@@H](Cc3ccc(O)cc3)C(=O)N2)[C@@H](C)O)CCNC(=O)[C@H]([C@@H](C)O)NC(=O)[C@H](CCN)NC(=O)[C@H](CCN)NC1=O [Ex. 133] (X2-CVAS[dP]PLSYCG[Dab]T[Dab][Dab][Dab][dL]L[Dab][Dab]T; disulfide 1-10; lactam 15-C) | 1 | 1 | 4 | 4 | 8 | 0.25 | 1 |  | <1 |
| CCCC[C@@H]1NC(=O)[C@@H]2CCCN2C(=O)[C@H]2CCCN2C(=O)[C@H](CO)NC(=O)[C@H](CO)NC(=O)[C@H](C(C)(C)C)NC(=O)[C@H](CCN)NC(=O)[C@H](Cc2c[nH]c3ccccc23)NC(=O)[C@H](CCN)NC(=O)[C@@H](CCN)NC(=O)[C@H](CCC(=O)N[C@@H](CCN)C(=O)N[C@H](C(=O)N[C@@H](CCN)C(=O)N[C@H]2CCNC(=O)[C@H]([C@@H](C)O)NC(=O)[C@H](CCN)NC(=O)[C@H](CCN)NC(=O)[C@H](CC(C)C)NC(=O)[C@@H](CC(C)C)NC(=O)[C@H](CCN)NC2=O)[C@@H](C)O)NC(=O)[C@H](CCN)NC(=O)[C@H](Cc2ccc(O)cc2)NC(=O)[C@H](CN)NC1=O [Ex. 83] (I: cyclo([Nle][Dap]Y[Dab]E[dDab][Dab]W[Dab][Tle]SS[dP]P) / II: [Dab]T[Dab][Dab][Dab][dL]L[Dab][Dab]T; amide I:5-II:N; lactam II:4-II:C) | 1 | 2 | 1 | 1 | 4 | 2 | 1 | 1 |  |
| CCCC[C@@H]1NC(=O)[C@@H]2CCCN2C(=O)[C@H]2CCCN2C(=O)[C@H](CO)NC(=O)[C@H](C)NC(=O)[C@H](C(C)(C)C)NC(=O)[C@@H](NC(=O)[C@H](Cc2c[nH]c3ccccc23)NC(C)=O)CSSC[C@@H](C(=O)N[C@@H](CCN)C(=O)N[C@H](C(=O)N[C@@H](CCN)C(=O)N[C@@H](CCN)C(=O)N[C@H]2CCNC(=O)[C@H]([C@@H](C)O)NC(=O)[C@H](CCN)NC(=O)[C@H](CCN)NC(=O)[C@H](CC(C)C)NC(=O)[C@@H](Cc3ccccc3)NC(=O)[C@H](CCN)NC2=O)[C@@H](C)O)NC(=O)[C@H](Cc2ccc(O)cc2)NC(=O)[C@H](CO)NC1=O [Ex. 34] (Ac-WC[Tle]AS[dP]P[Nle]SYC[Dab]T[Dab][Dab][Dab][Dab][dF]L[Dab][Dab]T; disulfide 2-11; lactam 16-C) | 0.125 | 0.125 | 0.125 | 0.25 | 1 | 0.0625 | 0.25 |  | 1 |
| CC(C)C[C@@H]1NC(=O)[C@@H](CC(C)C)NC(=O)[C@H](CCN)NC(=O)[C@@H](NC(=O)[C@@H](CCN)NC(=O)[C@@H]2CSSC(C)(C)[C@H](N)C(=O)N[C@@H](Cc3c[nH]c4ccccc34)C(=O)N[C@@H](CCN)C(=O)N[C@@H](C(C)C)C(=O)N[C@@H](CO)C(=O)N[C@@H](CO)C(=O)N3C[C@@H](O)C[C@@H]3C(=O)N3CCC[C@H]3C(=O)N[C@@H](CC(C)C)C(=O)N[C@@H](CO)C(=O)N[C@@H](Cc3ccc(O)cc3)C(=O)N[C@@H](CCN)C(=O)N[C@@H](CCCN)C(=O)N2)CCNC(=O)[C@H]([C@@H](C)O)NC(=O)[C@H](CCN)NC(=O)[C@H](CCN)NC1=O [Ex. 208] (H-[Pen]W[Dab]VSS[dHyp]PLSY[Dab][Orn]C[dDab][Dab][Dab][dL]L[Dab][Dab]T; disulfide 1-14; lactam 16-C) | 2 | 1 | 2 | 0.5 | 8 | 0.25 | 1 |  | <1 |
| CC(C)C[C@@H]1NC(=O)[C@@H](CC(C)C)NC(=O)[C@H](CCN)NC(=O)[C@@H](NC(=O)[C@H](CCN)NC(=O)[C@@H](NC(=O)[C@H](CCN)NC(=O)CC[C@@H]2NC(=O)[C@H](CCO)NC(=O)[C@H](Cc3ccc(O)cc3)NC(=O)[C@H]([C@@H](C)O)NC(=O)[C@H](C(C)C)NC(=O)[C@@H]3CCCN3C(=O)[C@@H](C)NC(=O)[C@H](CO)NC(=O)[C@H](C)NC(=O)[C@H](C(C)(C)C)NC(=O)[C@H](CCO)NC(=O)[C@H](Cc3c[nH]c4ccccc34)NC(=O)[C@H](CCO)NC(=O)[C@@H](CCN)NC2=O)[C@@H](C)O)CCNC(=O)[C@H]([C@@H](C)O)NC(=O)[C@H](CCN)NC(=O)[C@H](CCN)NC1=O [Ex. 102] (I: cyclo(AS[dA]PVTY[hSer]E[dDab][hSer]W[hSer][Tle]) / II: [Dab]T[Dab][Dab][Dab][dL]L[Dab][Dab]T; amide I:9-II:N; lactam II:4-II:C) | 0.125 | 0.125 | 0.5 | 0.25 | 0.5 | 0.0625 | 0.0625 | <1 |  |
| CCCC[C@@H]1NC(=O)[C@@H]2CCCN2C(=O)[C@H]2CCCN2C(=O)[C@H](CO)NC(=O)[C@H](C)NC(=O)[C@H](C(C)(C)C)NC(=O)[C@H](CCN)NC(=O)[C@H](Cc2c[nH]c3ccccc23)NC(=O)[C@@H](NC(C)=O)CSSC[C@@H](C(=O)N[C@@H](CCN)C(=O)N[C@H]2CCNC(=O)[C@H]([C@@H](C)O)NC(=O)[C@H](CCN)NC(=O)[C@H](CCN)NC(=O)[C@H](CC(C)C)NC(=O)[C@@H](Cc3ccccc3)NC(=O)[C@H](CCN)NC2=O)NC(=O)[C@H](CCCN)NC(=O)[C@H](CCN)NC(=O)[C@H](Cc2ccc(O)cc2)NC(=O)[C@H](CO)NC1=O [Ex. 57] (Ac-CW[Dab][Tle]AS[dP]P[Nle]SY[Dab][Orn]C[Dab][Dab][Dab][dF]L[Dab][Dab]T; disulfide 1-14; lactam 16-C) | 0.5 | 0.25 | 4 | 1 | 8 | 0.25 | 1 |  | <1 |
| CNCC(=O)N[C@@H](Cc1c[nH]c2ccccc12)C(=O)N[C@H]1CSSC[C@@H](C(=O)N(C)CC(=O)N[C@@H](CCN)C(=O)N[C@H](C(=O)N[C@@H](CCN)C(=O)N[C@H]2CCNC(=O)[C@H]([C@@H](C)O)NC(=O)[C@H](CCNC(=O)[C@@H](N)CCCNC(=N)N)NC(=O)[C@H](CCN)NC(=O)[C@H](CC(C)C)NC(=O)[C@@H](CC(C)C)NC(=O)[C@H](CCN)NC2=O)[C@@H](C)O)NC(=O)[C@H](Cc2ccc(O)cc2)NC(=O)[C@H](CO)NC(=O)[C@H](CC(C)C)NC(=O)[C@@H]2CCCN2C(=O)[C@H]2CCCN2C(=O)[C@H](CO)NC(=O)[C@H](C)NC(=O)[C@H](C(C)C)NC1=O [Ex. 187] (H-[Sar]WCVAS[dP]PLSYC[Sar][Dab]T[Dab][Dab][Dab][dL]L[Dab][Dab](Arg)T; disulfide 3-12; lactam 17-C) | 1 | 0.125 | 1 | 2 | 1 | 0.125 | 0.125 |  | <1 |
